The values that follow are results of earlier work, collected in patent US20030219468A1 (priority 2002, published 2003).

One series relates to Plasmodium berghei. As to conditions: mice, toward Plasmodium berghei.
The conditions of series [1]: cold water.
For series [2] the following is noted: sorbic acid and its salts.

For the compound Curdlan, the immunizing activity entry in the series with Plasmodium berghei is listed as “immunizing activity”. With `C/C=C/C=C/C(=O)O` [Sorbic acid, trans,trans-2,4-hexadienoic acid], the solubility entry in series [1] was “only slightly soluble”. For the same compound, the microbiostatic antimycotic activity result in series [2] is listed as “very high microbiostatic antimycotic activity”.
